Experimental findings from patent US5972946A, “Acetamide derivative, process for preparing the same, and a pharmaceutical composition containing the same” (Dainippon Pharmaceutical Co., Ltd., priority 1995, dated 1999) are described below.

Experiment [1] concerns the target peripheral (ω3) benzodiazepine (BZ) receptor (Rattus norvegicus, UniProt P16257). Kind of experiment: BZω3 (peripheral-type) benzodiazepine receptor binding assay.
Method: Experiment 1: Central (ω1, ω2) and peripheral (ω3) benzodiazepine (BZ) receptor binding assays
BZω1 and BZω2 receptor binding assays were carried out according to the method of Stephens, D. N. et al. [cf.
Receptor membrane fractions for ω1, ω2 and ω3 were prepared from the cerebellum (ω1), spinal cord (ω1) or kidney (ω3) in 7-8 week old male rats of Wistar strain by the procedure described below.
After the cerebellum or spinal cord was homogenized with 20 volumes of ice-cold 50 mM Tris-citrate buffer (pH 7.1), the homogenate was centrifuged for 15 minutes at 40,000 g. The pellet obtained was washed 4 times by the same procedure, frozen and stored for 24 hours at -60° C. The resulting pellet, after being thawed, washed with the buffer and centrifuged, was suspended in the buffer I for the binding assay (50 mM Tris-HCl buffer containing 120 mM NaCl, 5 mM KCl, 2 mM CaCl2 and 1 mM MgCl2 ; pH 7.4) and the suspension thus obtained (containing 1 g wet tissue/40 ml) was used for the BZω1 and BZω2 receptor binding assays. On the other hand, the kidney was homogenized with 20 volumes of the ice-cold buffer II for the binding assay (50 mM Na--K phosphate buffer containing 100 mM NaCl; pH 7.4), filtered through 4 sheets of gauze, and centrifuged for 20 minutes at 40,000 g. The pellet obtained was suspended in the buffer II and the suspension (containing 1 g wet tissue/100 ml) was used for the binding assay as BZω3 receptor membrane source.
Flumazenil (final concentration: 0.3 nM for (ω1 and 1 nM for ω2) and flunitrazepam (final concentration: 10 μM) were used for the BZω1 or BZω2 receptor binding assays as the isotope-labeled and unlabeled ligands, respectively. For the BZω3 receptor binding assay, [^3 H] 4'-chlorodiazepam (7-chloro-1,3-dihydro-1-methyl-5-(4-chlorophenyl)-2H-1,4-benzodiazepin-2-one) (final concentration: 0.5 nM) and diazepam (final concentration: 100 μM) were used as the isotope-labeled and unlabeled ligands, respectively. Incubation was performed for 30 minutes at 37° C. in the BZω1 or BZω2 receptor binding assays, and for 150 minutes at 0° C. in the BZω3 receptor binding assay. The BZω1 or BZω2 receptor binding assays were carried out in the presence of bicuculline (final concentration: 100 μM).
The binding assay was performed by the following procedure. After adding each test compound at certain known concentrations, a [^3 H] ligand and the buffer I or II to each test tube, each assay was started by addition of membrane preparation (total volume of 1 ml). After incubation, the assay was terminated by filtration with suction through a Whatman GF/B glass fiber filter using a cell harvester (Brandel, USA). The filters were rapidly washed 3 times with 5 ml of ice-cold 50 mM Tris-HCl buffer (pH 7.7) for ω1 and ω2, or the buffer II forω3, and transferred to scintillation vials containing 10 ml liquid scintillation cocktail (ACS-II, Amersham, USA). After a few hours, retained radioactivity was counted by a liquid scintillation spectrometer. Specific binding of [^3 H] ligands was calculated as the difference between amounts of radioactivity bound in the presence and absence of excess unlabeled ligands.
Experiment [2] is described as follows: Light and dark box test (anti-anxiety effect). The format is in vivo, mouse (Std-ddY, male). The settings on record: Mus musculus, 0.5 h; oral, 30 min before test; mice; p<0.05 vs vehicle; read-out: Anti-anxiety effect MED (minimum effective dose). An excerpt:
Experiment 2: Light and dark box test (anti-anxiety effect)
Anti-anxiety effect of test compounds was examined in a box with light and dark compartments according to the method of Crawley, J. and Goodwin, F. K. [cf. Pharmacol. Biochem. Behav. 13, 167-170 (1980)] with slight modification.
Light and dark box test is a useful, simple and handy method for behaviorally and pharmacologically examining anti-anxiety effect of the drugs, by utilizing the habit of rodents such as mice and rats, etc. which prefer to stay in a dark place, and regarding as positive drug effect the increase of the relative stay of the animals in the light compartment which is an uncomfortable place for the animals.
Light and dark box test was carried out using the test box device (35×15×17 cm) which comprises: a light compartment (20×15×17 cm) consisting of transparent acrylic plates and highly illuminated by an incandescent lamp (1,700 lux); a dark compartment (15×15×17 cm) being made of black acrylic plates connected to the light compartment; and at the boundary of compartments, an opening (4.4×5 cm) in which mice can go through freely between two compartments.
Male mice of Std-ddY strain weighing 25-30 g were used in a group of 10. Each trial was started by placing a mouse in the center of the light compartment 30 minutes after oral administration of a test compound, and the time spent by the mouse in the light compartment during a 5 minute observation period was measured, and the rate of the stay of mice in the light compartment to the whole time spent in the experiment was calculated. The increasing rate of the relative stay of the test compound to that of the vehicle control group was yielded, based on the rate of the stay of mice in the light compartment.
The anti-anxiety effect of the test compound was represented by the minimum effectivetive dose (MED) at which the increasing rate of the relative stay was regarded statistically as significant (Williams-Wilcoxon's test, p<0.05).

Experiment [3] in a line: Isoniazid-induced clonic convulsion test (anti-convulsant effect). The settings on record: Mus musculus, 0.5 h; oral, 30 min before isoniazid 200 mg/kg s.c.; mice; read-out: Anti-isoniazid effect ED25 (dose which prolonged the onset time of clonic convulsion by 25%). The format is in vivo, mouse (Std-ddY, male). The text has this:
Experiment 3: Isoniazid-induced clonic convulsion test (anti-convulsant effect)
Isoniazid inhibits glutamate decarboxylase which catalyzes GABA synthesis, deases brain GABA levels, and induces clonic convulsion. According to the method of Auta, J. et al. [cf. J. Pharmacol. Exp. Ther. 265, 649-656 (1993)] with slight modification, we examined antagonistic effect of the test compounds on isoniazid-induced clonic convulsion. […] Those are BZ anxiolytics represented by diazepam, neurosteroids such as allopregnanolone, allotetrahydrodeoxycortico-sterone(THDOC) and BZω3 receptor agonists which enhance the synthesis of neurosteroids.
Male mice of Std-ddY strain weighing 22-24 g were used in a group of 6. Thirty minutes after oral administration of the test compounds, mice were injected with isoniazid (200 mg/kg, s.c.), and immediately thereafter, placed individually in acrylic observation cages. The onset time of clonic convulsion was measured (cut-off time: 90 minutes). The latency in the control group was about 40 minutes.
Anti-isoniazid effect of the test compounds was expressed as the dose which prolonged the onset time by 25% compared to that in the vehicle group (ED25). The ED25 value was calculated according to the Litchfield-Wilcoxon's method.

The nature of experiment [4]: Collagen-induced arthritis inhibitory test 1. In kind it is in vivo, mouse (DBA/1j, male). The settings on record: for severity of arthritis (arthritic score) versus control group / onset of arthritis delayed until (days after the booster immunization): 10 mg/kg oral daily; for onset of arthritis delayed until (days after the booster immunization): control onset on 28th day; for effect on collagen-induced arthritis inhibitory test (conclusion): experiment 4, 10 mg/kg oral. On the procedure: Experiment 4: Collagen-induced arthritis inhibitory test 1
Collagen-induced arthritis inhibitory test is an experimental model for rheumatoid arthritis reported by Trethan, D. E. et al. [cf. […] J. Immunol., 140, 78-83 (1988)].
Collagen-induced arthritis inhibitory test was carried out according to Kakimoto, K. et al. (cf. above reference of Kakimoto, K. et al.) with slight modification. Solubilized bovine cartilage type II collagen (product of Elastine Products, U.S.A.) was emulsified in complete Freund's adjuvant (product of DIFCO Lab., U.S.A.). Male mice of DBA/1j strain (6 week-old; product of Nippon Charles River, Japan) were immunized by injection at the base of the tail with 150 μg of the emulsified collagen. After twenty one days from the immunization, arthritis was induced by a booster immunization of 150 μg of the emulsified collagen prepared in the same manner as above at the base of the tail again. A test compound was orally administered daily at the dose of 10 mg/kg from the first immunization. Mice were observed daily 5 days after the booster immunization for the onset of arthritis, and an arthritic score was derived by grading the severity of involvement of each paw five scales (0-4) according to the method of Wood, F. D. et al. [cf. Int. Arch. Allergy Appl. The severity of arthritis was estimated by the sum of the scores of all 4 paws, and the onset of the disease was determined when score 1 was observed.

Take `Cc1nc(-c2ccc(Cl)cc2)nc(NCC(=O)N(C)c2ccc(F)cc2)c1C` [Example 36, 2-[2-(4-Chlorophenyl)-5,6-dimethyl-4-pyrimidinylamino]-N-(4-fluorophenyl)-N-methylacetamide]: the IC50 in experiment [1] was 1.44 nM. In addition, the minimal effective dose in experiment [2] came out at 0.3 mg/kg. In experiment [3], the ED25 was 54.2 mg/kg.

In turn, `CCCN(CCC)C(=O)CNc1cc(-c2ccccc2)nc(-c2ccccc2)n1` [Example 93, 2-(2,6-Diphenyl-4-pyrimidinylamino)-N,N-dipropylacetamide] registered an IC50 in experiment [1] of 4.1 nM. Moreover, in experiment [4], the “severity of arthritis (arthritic score) versus control group” value is “much lower than the control group”, the “onset of arthritis delayed until (days after the booster immunization)” value is 40 days and the “effect on collagen-induced arthritis inhibitory test (conclusion)” value is on record as “potent effect”.

Take `CCN(CC)C(=O)CNc1nc(-c2ccccc2)nc(C)c1C` [Example 9]: the minimal effective dose in experiment [2] was found to be 0.3 mg/kg. Besides, the ED25 in experiment [3] turned out to be 25.5 mg/kg.

Regarding `Cc1nc(-c2ccccc2)nc(NCC(=O)N(C)c2ccccc2)c1C` [Example 22], in experiment [1], the IC50 worked out at 3.26 nM. Further, the minimal effective dose in experiment [2] was determined as 0.3 mg/kg. In addition, the ED25 in experiment [3] stood at 50.3 mg/kg.

Turning to `COc1ccc(-c2nc(C)c(C)c(OCC(=O)N(C)c3ccc(Cl)cc3)n2)cc1` [Example 150], the minimal effective dose in experiment [2] amounted to 0.3 mg/kg.

`CCN(CC)C(=O)CNc1nc(-c2ccc(Cl)cc2)nc(C)c1C` [Example 10, 2-[2-(4-Chlorophenyl)-5,6-dimethyl-4-pyrimidinylamino]-N,N-diethylacetamide] came in with an IC50 in experiment [1] of 0.7 nM. Further, in experiment [2], the minimal effective dose turned out to be 1 mg/kg. Further, the ED25 in experiment [3] was determined as 36.9 mg/kg.

In the case of `Cc1nc(-c2ccccc2)nc(NCC(=O)N(C)CC(C)C)c1C` [Example 21], the minimal effective dose in experiment [2] was 0.1 mg/kg. Moreover, the ED25 in experiment [3] was found to be 72.1 mg/kg.

Compound `CCCN(CCC)C(=O)COc1nc(-c2ccc(OC)cc2)nc(C)c1C` [Example 139] showed an IC50 in experiment [1] of 0.38 nM. Moreover, the minimal effective dose in experiment [2] amounted to 0.1 mg/kg.

As to `Cc1nc(-c2ccc(Cl)cc2)nc(OCC(=O)N(C)c2ccccc2)c1C` [Example 144, 2-[2-(4-Chlorophenyl)-5,6-dimethyl-4-pyrimidinyloxy]-N-methyl-N-phenylacetamide], in experiment [1], the IC50 was determined as 0.31 nM. In experiment [4], the “severity of arthritis (arthritic score) versus control group” value was “much lower than the control group”, the “onset of arthritis delayed until (days after the booster immunization)” value turned out to be 37 days and the “effect on collagen-induced arthritis inhibitory test (conclusion)” value is listed as “potent effect”.

In experiment [1], `CCCN(CCC)C(=O)CNc1nc(-c2ccc(Cl)cc2)nc(C)c1C` [Example 2, 2-[2-(4-Chlorophenyl)-5,6-dimethyl-4-pyrimidinylamino]-N,N-dipropylacetamide] returned an IC50 of 0.97 nM. For the same compound, the minimal effective dose in experiment [2] was found to be 0.01 mg/kg. In addition, in experiment [3], the ED25 was determined as 65.6 mg/kg.

`CCCN(C(=O)CNc1nc(-c2ccccc2)nc(C)c1C)c1ccccc1` [Example 52, 2-(5,6-Dimethyl-2-phenyl-4-pyrimidinylamino)-N-phenyl-N-propylacetamide] displayed an IC50 in experiment [1] of 29.5 nM. Moreover, the minimal effective dose in experiment [2] is 0.1 mg/kg. Moreover, the ED25 in experiment [3] was determined as 23.5 mg/kg.

In the case of `Cc1nc(-c2ccccc2)nc(NCC(=O)N(C)c2cccc(Cl)c2)c1C` [Example 31], the minimal effective dose in experiment [2] amounted to 0.3 mg/kg.

`COc1ccc(N(C)C(=O)CNc2nc(-c3ccc(Cl)cc3)nc(C)c2C)cc1` [Example 42, 2-[2-(4-Chlorophenyl)-5,6-dimethyl-4-pyrimidinylamino]-N-(4-methoxyphenyl)-N-methylacetamide] gave an IC50 in experiment [1] of 2.15 nM. Besides, the minimal effective dose in experiment [2] was less than 0.01 mg/kg. Further, the ED25 in experiment [3] was 58.7 mg/kg.

`Cc1nc(-c2ccccc2)nc(NCC(=O)N(CC2CC2)c2ccccc2)c1C` [Example 61] displayed an IC50 in experiment [1] of 9.8 nM. Also, the ED25 in experiment [3] turned out to be 17.7 mg/kg.

With `CCN(C(=O)CNc1nc(-c2ccc(F)cc2)nc(C)c1C)c1ccccc1` [Example 47], in experiment [1], the IC50 came out at 0.16 nM. For the same compound, in experiment [3], the ED25 was 7.62 mg/kg.

As to `Cc1nc(-c2ccc(Cl)cc2)nc(NCC(=O)N(C)c2ccccc2)c1C` [Example 23, 2-[2-(4-Chlorophenyl)-5,6-dimethyl-4-pyrimidinylamino]-N-methyl-N-phenylacetamide], in experiment [1], the IC50 was 1.76 nM. For the same compound, the minimal effective dose in experiment [2] is 0.01 mg/kg. Also, in experiment [3], the ED25 was 40.8 mg/kg.

`CCCN(CCC)C(=O)CNc1nc(-c2ccccc2)nc(C)c1C` [Example 1, 2-(5,6-dimethyl-2-phenyl-4-pyrimidinylamino)-N,N-dipropylacetamide]: in experiment [1], the IC50 was 3.1 nM. Further, the minimal effective dose in experiment [2] was found to be 0.3 mg/kg. Also, the ED25 in experiment [3] came out at 82.2 mg/kg.

In experiment [1], `CCCN(CC)C(=O)CNc1nc(-c2ccccc2)nc(C)c1C` [Example 17] yielded an IC50 of 1.97 nM. Besides, the ED25 in experiment [3] was found to be 45.7 mg/kg.

`Cc1nc(-c2ccccc2)nc(NCC(=O)N(C)c2ccc(Br)cc2)c1C` [Example 37] came in with an IC50 in experiment [1] of 1.66 nM. Further, the minimal effective dose in experiment [2] was determined as 0.1 mg/kg. In experiment [3], the ED25 was 61.9 mg/kg.

`CCCN(CCC)C(=O)CNc1nc(-c2ccccc2)nc(C)c1CC` [Example 83, 2-(5-ethyl-6-methyl-2-phenyl-4-pyrimidinylamino)-N,N-dipropylacetamide] had an IC50 in experiment [1] of 5.02 nM. Besides, the ED25 in experiment [3] came to 70.2 mg/kg.

In the case of `Cc1nc(-c2ccccc2)nc(NCC(=O)N(C)c2ccc(F)cc2)c1C` [Example 35], the IC50 in experiment [1] came out at 1.51 nM. Also, the minimal effective dose in experiment [2] came to 0.1 mg/kg. Moreover, the ED25 in experiment [3] came to 85.7 mg/kg.

`CCCN(CCC)C(=O)CNc1nc(-c2ccc(OC)cc2)nc(C)c1C` [Example 5] displayed an IC50 in experiment [1] of 1.28 nM. Also, in experiment [3], the ED25 was 15.1 mg/kg.

In experiment [1], `CCN(C(=O)CNc1nc(-c2ccc(Cl)cc2)nc(C)c1C)c1ccccc1` [Example 45, 2-[2-(4-Chlorophenyl)-5,6-dimethyl-4-pyrimidinylamino]-N-ethyl-N-phenylacetamide] registered an IC50 of 0.7 nM. Also, the minimal effective dose in experiment [2] was 0.1 mg/kg. Moreover, the ED25 in experiment [3] is 9.6 mg/kg.

As to `Cc1nc(-c2ccccc2)nc(OCC(=O)N2CC(C)OC(C)C2)c1C` (stereo not drawn) [Example 171, 2,6-Dimethyl-4-(5,6-dimethyl-2-phenyl-4-pyrimidinyloxy)acetylmorpholine], in experiment [1], the IC50 stood at 1.56 nM. Also, the ED25 in experiment [3] came out at 76.4 mg/kg.

In experiment [1], `CCCCN(CCCC)C(=O)CNc1nc(-c2ccc(F)cc2)nc(C)c1C` [Example 16] yielded a half-maximal inhibitory concentration (IC50) of 4 nM. The minimal effective dose in experiment [2] is 0.1 mg/kg.

In experiment [1], `Cc1nc(-c2ccccc2)nc(NCC(=O)N(C)c2ccc(Cl)cc2)c1C` [Example 29, N-(4-Chlorophenyl)-N-methyl-2-(5,6-dimethyl-2-phenyl-4-pyrimidinylamino) a cetamide] registered an IC50 of 0.85 nM. Moreover, the minimal effective dose in experiment [2] worked out at 0.03 mg/kg. Besides, the ED25 in experiment [3] was 67.5 mg/kg.
